Laboratory results as given in patent US12377104B1, “Methods for treating a fatty liver disease” (Madrigal Pharmaceuticals, Inc., priority 2024, dated 2025).

System: adults with biopsy-confirmed NASH and fibrosis stage F1B, F2, or F3
Experiment: MAESTRO-NASH: sensitivity analyses of primary endpoints (consensus, multiple imputation, GEE, tipping point, paired biopsies)
Assay type: in vivo, human
Settings: for Fibrosis improvement at Week 52, % / Fibrosis improvement at Week 52, no. / NASH resolution at Week 52, % / NASH resolution at Week 52, no.: GEE analysis; for Difference in percentage of responders, CMH, resmetirom group - placebo, NASH resolution / Difference in percentage of responders, CMH, resmetirom group - placebo, fibrosis improvement / OR of resmetirom group to placebo, NASH resolution / OR of resmetirom group to placebo, fibrosis improvement: GEE model
Procedure: Consensus reads of digitized images of glass slides by the two central pathologists were conducted in cases where the two pathologists scores disagreed as to whether there was a response for either NASH resolution (ballooning 0,1; 2-point NAS reduction and no worsening of fibrosis) OR ≥1 stage fibrosis reduction with no worsening of NAS (primary endpoints) OR a 2-stage reduction in fibrosis with no worsening of NAS. The study pathologists remained blinded to all clinical data, patient ID, and slide/image identity or time of biopsy. Study personnel remain blinded to patient level data and detailed group analyses. In total 387 total assessments took place requiring four Zoom meetings between the pathologists.
Tipping Point Analyses: This analysis imputed missing placebo responses for NASH resolution (in increments from 0% to 100% placebo imputation) and fibrosis response (in increments from 0% up to 35% placebo imputation) at Week 52 as successful responses in order to determine how many missing responses (which were counted in the primary analysis labels as non-responders) could be imputed before losing statistical significance.
Multiple Imputation Analysis: Multiple imputation analyses were conducted where data for patients with missing response at Week 52 were imputed under the missing at random assumption. Data for patients with missing response data at Week 52 were imputed under the missing at random assumption by running a simulation (100 times) which produces a correlated pair of binary 0/1 data for each patient that represents the patient's response status for each pathologist. The statistics were then calculated for each imputation using the same approach as for the primary endpoint. The normalized results from each dataset were combined using Rubin's rule. (Table 17).
General Estimating Equation (GEE) Model Analysis: A generalized estimation equation (GEE) analysis was performed as a sensitivity analysis. This approach treated the biopsy scores from the two pathologists as repeated measures (i.e. correlated binary outcomes) within a patient. Baseline diabetes status, fibrosis stage and interaction term between pathologist and treatment were also included in the model.
Summary of Observed Cases Using In-window Week 52 Paired Liver Biopsies: Supportive analyses were performed on patients with in-window paired Week 52 biopsies. Missing Week 52 biopsies were not imputed.

[1] = 80 mg (N = 258), in window including a baseline and Week 52 biopsy
[2] = 80 mg (n = 316), (1, 1) = responder per pathologist A and B
[3] = 80 mg (n = 316), Week 52, tipping point analysis, active patients with missing response = non-responders
[4] = 80 mg, (0, 0) = non-responder per both pathologists
[5] = 80 mg, (0, 1) = responder per pathologist B only
[6] = 80 mg, (1, 0) = responder per pathologist A only
[7] = 100 mg (N = 248), in window including a baseline and Week 52 biopsy
[8] = 100 mg (n = 321), (1, 1) = responder per pathologist A and B
[9] = 100 mg (n = 321), Week 52, tipping point analysis, active patients with missing response = non-responders
[10] = 100 mg, (0, 0) = non-responder per both pathologists
[11] = 100 mg, (0, 1) = responder per pathologist B only
[12] = 100 mg, (1, 0) = responder per pathologist A only
[13] = in window including a baseline and Week 52 biopsy
[14] = in-window including a baseline and Week 52 biopsy
[15] = tipping point, Placebo-0% imputed responders (Primary Analysis)
[16] = tipping point, Placebo-10% imputed responders
[17] = tipping point, Placebo-20% imputed responders
[18] = tipping point, Placebo-25% imputed responders
[19] = tipping point, Placebo-30% imputed responders
[20] = tipping point, Placebo-35% imputed responders
[21] = tipping point, Placebo-60% imputed responders
[22] = tipping point, Placebo-67% imputed responders
[23] = tipping point, Placebo-90% imputed responders
[24] = tipping point, Placebo-100% imputed responders

CC(C)c1cc(Oc2c(Cl)cc(-n3nc(C#N)c(=O)[nH]c3=O)cc2Cl)n[nH]c1=O [Resmetirom, 2-(3,5-dichloro-4-((5-isopropyl-6-oxo-1,6-dihydropyridazin-3-yl)oxy)phenyl)-3,5-dioxo-2,3,4,5-tetrahydro-1,2,4-triazine-6-carbonitrile]
% Response, Fibrosis improvement [1]: 29.7% | % Response, NASH resolution [1]: 31.8% | % Response, NASH resolution OR fibrosis improvement (80 mg (N = 258), in-window including a baseline and Week 52 biopsy): 42.2% | Fibrosis improvement at Week 52, % [2]: (16.5) % | Fibrosis improvement at Week 52, no. [2]: 52 | NASH resolution at Week 52, % [2]: (19.6) % | NASH resolution at Week 52, no. [2]: 62 | % Response, Fibrosis improvement [3]: 24.2% | % Response, NASH resolution [3]: 25.9% | Fibrosis improvement, Consensus (sensitivity), % Difference from PBO (80 mg, Week 52): 12.2% | Fibrosis improvement, Consensus (sensitivity), % Response (80 mg, Week 52): 24.4% | Fibrosis improvement, Multiple imputation (sensitivity), % Difference from PBO (80 mg, Week 52): 11.4% | Fibrosis improvement, Multiple imputation (sensitivity), % Response (80 mg, Week 52): 29.2% | NASH resolution, Consensus (sensitivity), % Difference from PBO (80 mg, Week 52): 16.8% | NASH resolution, Consensus (sensitivity), % Response (80 mg, Week 52): 24.4% | NASH resolution, Multiple imputation (sensitivity), % Difference from PBO (80 mg, Week 52): 17.7% | NASH resolution, Multiple imputation (sensitivity), % Response (80 mg, Week 52): 31.0% | Fibrosis improvement at Week 52, % [4]: (68.0) % | Fibrosis improvement at Week 52, no. [4]: 215 | NASH resolution at Week 52, % [4]: (67.7) % | NASH resolution at Week 52, no. [4]: 214 | Fibrosis improvement at Week 52, % [5]: (8.9) % | Fibrosis improvement at Week 52, no. [5]: 28 | NASH resolution at Week 52, % [5]: (5.1) % | NASH resolution at Week 52, no. [5]: 16 | Fibrosis improvement at Week 52, % [6]: (6.6) % | Fibrosis improvement at Week 52, no. [6]: 21 | NASH resolution at Week 52, % [6]: (7.6) % | NASH resolution at Week 52, no. [6]: 24 | Difference in percentage of responders, CMH, resmetirom group - placebo, NASH resolution (80 mg, Week 52): 17.5 | Difference in percentage of responders, CMH, resmetirom group - placebo, fibrosis improvement (80 mg, Week 52): 9.7 | OR of resmetirom group to placebo, NASH resolution (80 mg, Week 52): 3.5 | OR of resmetirom group to placebo, fibrosis improvement (80 mg, Week 52): 2.0 | % Response, Fibrosis improvement [7]: 33.5% | % Response, NASH resolution [7]: 38.7% | % Response, NASH resolution OR fibrosis improvement (100 mg (N = 248), in-window including a baseline and Week 52 biopsy): 50.4% | Fibrosis improvement at Week 52, % [8]: (15.9) % | Fibrosis improvement at Week 52, no. [8]: 51 | NASH resolution at Week 52, % [8]: (19.3) % | NASH resolution at Week 52, no. [8]: 62 | % Response, Fibrosis improvement [9]: 25.9% | % Response, NASH resolution [9]: 29.9% | Fibrosis improvement, Consensus (sensitivity), % Difference from PBO (100 mg, Week 52): 13.4% | Fibrosis improvement, Consensus (sensitivity), % Response (100 mg, Week 52): 25.5% | Fibrosis improvement, Multiple imputation (sensitivity), % Difference from PBO (100 mg, Week 52): 14.1% | Fibrosis improvement, Multiple imputation (sensitivity), % Response (100 mg, Week 52): 31.9% | NASH resolution, Consensus (sensitivity), % Difference from PBO (100 mg, Week 52): 20.7% | NASH resolution, Consensus (sensitivity), % Response (100 mg, Week 52): 27.7% | NASH resolution, Multiple imputation (sensitivity), % Difference from PBO (100 mg, Week 52): 23.2% | NASH resolution, Multiple imputation (sensitivity), % Response (100 mg, Week 52): 36.0% | Fibrosis improvement at Week 52, % [10]: (64.2) % | Fibrosis improvement at Week 52, no. [10]: 206 | NASH resolution at Week 52, % [10]: (59.5) % | NASH resolution at Week 52, no. [10]: 191 | Fibrosis improvement at Week 52, % [11]: (9.3) % | Fibrosis improvement at Week 52, no. [11]: 30 | NASH resolution at Week 52, % [11]: (4.0) % | NASH resolution at Week 52, no. [11]: 13 | Fibrosis improvement at Week 52, % [12]: (10.6) % | Fibrosis improvement at Week 52, no. [12]: 34 | NASH resolution at Week 52, % [12]: (17.1) % | NASH resolution at Week 52, no. [12]: 55 | Difference in percentage of responders, CMH, resmetirom group - placebo, NASH resolution (100 mg, Week 52): 21.3 | Difference in percentage of responders, CMH, resmetirom group - placebo, fibrosis improvement (100 mg, Week 52): 11.0 | OR of resmetirom group to placebo, NASH resolution (100 mg, Week 52): 4.2 | OR of resmetirom group to placebo, fibrosis improvement (100 mg, Week 52): 2.1 | % Difference Resmetirom 80 mg from PBO, Fibrosis improvement [13]: 13.6% | % Difference Resmetirom 80 mg from PBO, NASH resolution [13]: 20.9% | % Difference Resmetirom 100 mg from PBO, Fibrosis improvement [13]: 17.2% | % Difference Resmetirom 100 mg from PBO, NASH resolution [13]: 28.6% | % Difference Resmetirom 80 mg from PBO, NASH resolution OR fibrosis improvement [14]: 23.1% | % Difference Resmetirom 100 mg from PBO, NASH resolution OR fibrosis improvement [14]: 31.2% | % Difference Resmetirom 80 mg from PBO, Fibrosis improvement [15]: 10.2% | % Difference Resmetirom 80 mg from PBO, NASH resolution [15]: 16.4% | % Difference Resmetirom 100 mg from PBO, Fibrosis improvement [15]: 11.8% | % Difference Resmetirom 100 mg from PBO, NASH resolution [15]: 20.7% | % Difference Resmetirom 80 mg from PBO, Fibrosis improvement [16]: 8.8% | % Difference Resmetirom 100 mg from PBO, Fibrosis improvement [16]: 10.4% | % Difference Resmetirom 80 mg from PBO, Fibrosis improvement [17]: 7.5% | % Difference Resmetirom 100 mg from PBO, Fibrosis improvement [17]: 9.1% | % Difference Resmetirom 80 mg from PBO, Fibrosis improvement [18]: 6.9% | % Difference Resmetirom 100 mg from PBO, Fibrosis improvement [18]: 8.5% | % Difference Resmetirom 80 mg from PBO, Fibrosis improvement [19]: 6.2% | % Difference Resmetirom 80 mg from PBO, NASH resolution [19]: 12.4% | % Difference Resmetirom 100 mg from PBO, Fibrosis improvement [19]: 7.8% | % Difference Resmetirom 100 mg from PBO, NASH resolution [19]: 16.7% | % Difference Resmetirom 80 mg from PBO, Fibrosis improvement [20]: 5.5% | % Difference Resmetirom 100 mg from PBO, Fibrosis improvement [20]: 7.1% | % Difference Resmetirom 80 mg from PBO, NASH resolution [21]: 8.3% | % Difference Resmetirom 100 mg from PBO, NASH resolution [21]: 12.7% | % Difference Resmetirom 80 mg from PBO, NASH resolution [22]: 7.4% | % Difference Resmetirom 100 mg from PBO, NASH resolution [22]: 11.7% | % Difference Resmetirom 80 mg from PBO, NASH resolution [23]: 4.2% | % Difference Resmetirom 100 mg from PBO, NASH resolution [23]: 18.6% | % Difference Resmetirom 80 mg from PBO, NASH resolution [24]: 2.6% | % Difference Resmetirom 100 mg from PBO, NASH resolution [24]: 7.0%
